Measurements published in BigSolDB 2.1.

c1ccc(OP2(Oc3ccccc3)=NP(Oc3ccccc3)(Oc3ccccc3)=NP(Oc3ccccc3)(Oc3ccccc3)=N2)cc1
Conditions | solubility (mole fraction)
in 2-ethoxyethanol, 298.15 K | 0.0065
in 2-ethoxyethanol, 300.95 K | 0.0074
in 2-ethoxyethanol, 303.25 K | 0.0081
in 2-ethoxyethanol, 310.15 K | 0.0106
in 2-ethoxyethanol, 314.55 K | 0.0126
in 2-ethoxyethanol, 318.75 K | 0.0148
in 2-ethoxyethanol, 323.65 K | 0.0182
in 2-ethoxyethanol, 328.05 K | 0.0212
in 2-ethoxyethanol, 333.15 K | 0.0259
in 2-ethoxyethanol, 343.25 K | 0.0352
in 2-ethoxyethanol, 348.35 K | 0.042
in 2-ethoxyethanol, 353.15 K | 0.0478
in THF, 293.25 K | 0.151
in THF, 298.15 K | 0.175
in THF, 304.35 K | 0.2
in THF, 308.25 K | 0.223
in THF, 314.25 K | 0.253
in THF, 318.45 K | 0.285
in THF, 323.15 K | 0.315
in THF, 328.25 K | 0.346
in acetone, 293.15 K | 0.0295
in acetone, 296.45 K | 0.0349
in acetone, 300.25 K | 0.0423
in acetone, 304.35 K | 0.0496
in acetone, 308.25 K | 0.0588
in acetone, 314.25 K | 0.0782
in acetone, 318.35 K | 0.093
in acetone, 323.15 K | 0.117
in acetonitrile, 298.25 K | 0.004
in acetonitrile, 303.55 K | 0.006
in acetonitrile, 308.25 K | 0.0082
in acetonitrile, 313.35 K | 0.0122
in acetonitrile, 318.35 K | 0.017
in acetonitrile, 323.45 K | 0.0243
in acetonitrile, 328.15 K | 0.0332
in acetonitrile, 333.25 K | 0.0457
in dichloromethane, 293.35 K | 0.099
in dichloromethane, 295.95 K | 0.111
in dichloromethane, 300.35 K | 0.139
in dichloromethane, 303.15 K | 0.158
in dichloromethane, 306.05 K | 0.179
in dichloromethane, 310.35 K | 0.219
in diethyl ether, 293.15 K | 0.0101
in diethyl ether, 296.25 K | 0.0122
in diethyl ether, 299.05 K | 0.014
in diethyl ether, 300.35 K | 0.0154
in diethyl ether, 303.15 K | 0.0178
in diethyl ether, 306.05 K | 0.0211
in ethanol, 298.25 K | 0.0096
in ethanol, 300.95 K | 0.0099
in ethanol, 303.25 K | 0.0102
in ethanol, 308.15 K | 0.011
in ethanol, 313.45 K | 0.0119
in ethanol, 318.75 K | 0.0129
in ethanol, 323.05 K | 0.0136
in ethanol, 328.35 K | 0.0147
in ethyl acetate, 298.15 K | 0.0592
in ethyl acetate, 300.95 K | 0.0655
in ethyl acetate, 303.25 K | 0.0699
in ethyl acetate, 308.25 K | 0.0829
in ethyl acetate, 313.25 K | 0.0983
in ethyl acetate, 319.05 K | 0.119
in ethyl acetate, 323.15 K | 0.136
in ethyl acetate, 328.25 K | 0.159
in n-heptane, 298.15 K | 0.0035
in n-heptane, 303.45 K | 0.0039
in n-heptane, 308.35 K | 0.0044
in n-heptane, 313.05 K | 0.0049
in n-heptane, 318.25 K | 0.0056
in n-heptane, 323.35 K | 0.0062
in n-heptane, 328.25 K | 0.0069
in n-heptane, 333.15 K | 0.0075
in toluene, 298.05 K | 0.0572
in toluene, 300.95 K | 0.065
in toluene, 303.35 K | 0.0717
in toluene, 310.25 K | 0.0904
in toluene, 314.45 K | 0.106
in toluene, 318.65 K | 0.123
in toluene, 323.55 K | 0.15
in toluene, 327.95 K | 0.173
in toluene, 333.15 K | 0.209
in toluene, 338.25 K | 0.246

O=[PH](O)c1ccccc1
Conditions | solubility (mole fraction)
in 2-ethoxyethanol, 288.15 K | 0.124
in 2-ethoxyethanol, 293.85 K | 0.136
in 2-ethoxyethanol, 298.25 K | 0.148
in 2-ethoxyethanol, 303.45 K | 0.165
in 2-ethoxyethanol, 313.15 K | 0.205
in 2-ethoxyethanol, 318.25 K | 0.227
in 2-ethoxyethanol, 323.65 K | 0.239
in 2-ethoxyethanol, 328.25 K | 0.259
in 2-ethoxyethanol, 333.45 K | 0.283
in 2-ethoxyethanol, 338.35 K | 0.308
in 2-ethoxyethanol, 343.25 K | 0.344
in 2-ethoxyethanol, 348.25 K | 0.372
in 2-ethoxyethanol, 353.25 K | 0.397
in 2-ethoxyethanol, 358.55 K | 0.434
in 2-ethoxyethanol, 363.15 K | 0.459
in acetone, 293.35 K | 0.0305
in acetone, 298.15 K | 0.0448
in acetone, 303.55 K | 0.0671
in acetone, 308.25 K | 0.0879
in acetone, 313.45 K | 0.124
in acetone, 318.25 K | 0.186
in acetone, 323.35 K | 0.256
in benzene, 299.15 K | 0.054
in benzene, 303.65 K | 0.0709
in benzene, 308.55 K | 0.111
in benzene, 313.25 K | 0.145
in benzene, 318.45 K | 0.225
in benzene, 323.15 K | 0.308
in benzene, 328.35 K | 0.415
in benzene, 333.15 K | 0.554
in chloroform, 293.15 K | 0.134
in chloroform, 298.45 K | 0.157
in chloroform, 303.25 K | 0.186
in chloroform, 308.25 K | 0.228
in chloroform, 313.15 K | 0.269
in chloroform, 318.35 K | 0.315
in chloroform, 323.25 K | 0.357
in dichloromethane, 288.15 K | 0.0292
in dichloromethane, 293.35 K | 0.0386
in dichloromethane, 296.25 K | 0.0458
in dichloromethane, 298.15 K | 0.0528
in dichloromethane, 303.45 K | 0.0709
in dichloromethane, 308.25 K | 0.091
in ethanol, 283.25 K | 0.0889
in ethanol, 288.65 K | 0.112
in ethanol, 293.15 K | 0.136
in ethanol, 298.35 K | 0.168
in ethanol, 303.45 K | 0.205
in ethanol, 308.25 K | 0.245
in ethanol, 313.45 K | 0.297
in ethanol, 318.55 K | 0.356
in ethanol, 323.35 K | 0.42
in ethyl acetate, 293.45 K | 0.0144
in ethyl acetate, 298.15 K | 0.0185
in ethyl acetate, 303.25 K | 0.0275
in ethyl acetate, 313.45 K | 0.0494
in ethyl acetate, 318.25 K | 0.0661
in ethyl acetate, 328.35 K | 0.107
in ethyl acetate, 333.25 K | 0.136
in ethyl acetate, 338.55 K | 0.174
in methanol, 293.55 K | 0.173
in methanol, 298.15 K | 0.215
in methanol, 303.75 K | 0.28
in methanol, 308.35 K | 0.344
in methanol, 313.45 K | 0.429
in methanol, 318.25 K | 0.526
in methanol, 323.65 K | 0.655
in toluene, 293.15 K | 0.0187
in toluene, 298.35 K | 0.0282
in toluene, 303.45 K | 0.0389
in toluene, 313.25 K | 0.0652
in toluene, 318.15 K | 0.0934
in toluene, 323.35 K | 0.125
in toluene, 328.15 K | 0.162
in toluene, 333.55 K | 0.199
in toluene, 338.45 K | 0.255
in toluene, 343.15 K | 0.316
in toluene, 348.35 K | 0.413
in water, 297.79 K | 0.0095
in water, 300.25 K | 0.0111
in water, 302.4 K | 0.0129
in water, 305.22 K | 0.0159
in water, 309.93 K | 0.0218
in water, 312.84 K | 0.0305
in water, 318.15 K | 0.0433
in water, 323.35 K | 0.0572
in water, 328.15 K | 0.085
in water, 333.45 K | 0.11
in water, 338.25 K | 0.161
in water, 343.15 K | 0.208

CP(=O)(O)c1ccccc1
Conditions | solubility (mole fraction)
in 2-ethoxyethanol, 298.15 K | 0.252
in 2-ethoxyethanol, 303.15 K | 0.289
in 2-ethoxyethanol, 313.25 K | 0.348
in 2-ethoxyethanol, 318.15 K | 0.397
in 2-ethoxyethanol, 323.35 K | 0.441
in 2-ethoxyethanol, 328.25 K | 0.472
in 2-ethoxyethanol, 333.15 K | 0.519
in 2-ethoxyethanol, 338.45 K | 0.587
in 2-ethoxyethanol, 343.35 K | 0.639
in 2-ethoxyethanol, 348.35 K | 0.697
in 2-ethoxyethanol, 353.15 K | 0.751
in acetone, 293.15 K | 0.0473
in acetone, 298.15 K | 0.0609
in acetone, 303.25 K | 0.0816
in acetone, 308.15 K | 0.0995
in acetone, 313.35 K | 0.127
in acetone, 318.15 K | 0.165
in acetone, 323.25 K | 0.204
in benzene, 293.25 K | 0.0386
in benzene, 298.15 K | 0.0541
in benzene, 303.15 K | 0.0809
in benzene, 308.35 K | 0.113
in benzene, 313.25 K | 0.163
in benzene, 318.15 K | 0.218
in benzene, 323.25 K | 0.301
in benzene, 328.15 K | 0.419
in benzene, 333.35 K | 0.563
in chloroform, 293.15 K | 0.112
in chloroform, 298.25 K | 0.132
in chloroform, 303.15 K | 0.156
in chloroform, 308.35 K | 0.188
in chloroform, 313.15 K | 0.214
in chloroform, 318.45 K | 0.255
in chloroform, 323.15 K | 0.288
in chloroform, 328.15 K | 0.34
in dichloromethane, 288.55 K | 0.0465
in dichloromethane, 293.65 K | 0.0697
in dichloromethane, 296.15 K | 0.0904
in dichloromethane, 298.35 K | 0.104
in dichloromethane, 303.25 K | 0.164
in dichloromethane, 308.35 K | 0.235
in ethanol, 293.25 K | 0.205
in ethanol, 298.15 K | 0.266
in ethanol, 303.35 K | 0.333
in ethanol, 308.25 K | 0.39
in ethanol, 313.55 K | 0.486
in ethanol, 318.45 K | 0.614
in ethanol, 323.15 K | 0.734
in ethanol, 328.25 K | 0.872
in ethyl acetate, 288.35 K | 0.0484
in ethyl acetate, 293.15 K | 0.0621
in ethyl acetate, 298.25 K | 0.075
in ethyl acetate, 303.45 K | 0.0941
in ethyl acetate, 313.35 K | 0.152
in ethyl acetate, 318.15 K | 0.182
in ethyl acetate, 328.15 K | 0.265
in ethyl acetate, 333.35 K | 0.304
in ethyl acetate, 338.15 K | 0.359
in ethyl acetate, 343.25 K | 0.428
in methanol, 298.35 K | 0.317
in methanol, 303.15 K | 0.343
in methanol, 308.15 K | 0.372
in methanol, 313.25 K | 0.406
in methanol, 318.35 K | 0.439
in methanol, 323.15 K | 0.471
in methanol, 328.25 K | 0.499
in toluene, 293.25 K | 0.12
in toluene, 298.35 K | 0.147
in toluene, 303.25 K | 0.168
in toluene, 308.35 K | 0.204
in toluene, 313.15 K | 0.229
in toluene, 323.25 K | 0.327
in toluene, 328.35 K | 0.377
in toluene, 333.25 K | 0.418
in toluene, 338.15 K | 0.479
in toluene, 343.45 K | 0.564
in water, 298.15 K | 0.0154
in water, 303.35 K | 0.0204
in water, 310.45 K | 0.027
in water, 314.25 K | 0.032
in water, 320.45 K | 0.0414
in water, 324.15 K | 0.0477
in water, 329.25 K | 0.0579
in water, 333.65 K | 0.0679
in water, 338.75 K | 0.0865
in water, 343.45 K | 0.0968
in water, 348.25 K | 0.12
